From paper PMC11002876, “KcsA-Kv1.x chimeras with complete ligand-binding sites provide improved predictivity for screening selective Kv1.x blockers” (The Journal of Biological Chemistry, 2024)
Like-named read-outs stand apart in the source and are kept apart here. Where a SMILES comes first, the peptide text is derived from it.

Target: T1, KcsA-Kv1.3 T+F chimera (Streptomyces lividans, UniProt P0A334, A54D/A57S/G53D/G56T/I60S/L59F/L81M/Q58G/R52A/R64D/T61S/Y62I/Y82H)
T1 construct: made in house; host or cells: E. coli C41(DE3) (pET45b)
T1 sequence (P0A334 1-160 R52A/G53D/A54D/G56T/A57S/Q58G/L59F/I60S/T61S/Y62I/R64D/L81M/Y82H): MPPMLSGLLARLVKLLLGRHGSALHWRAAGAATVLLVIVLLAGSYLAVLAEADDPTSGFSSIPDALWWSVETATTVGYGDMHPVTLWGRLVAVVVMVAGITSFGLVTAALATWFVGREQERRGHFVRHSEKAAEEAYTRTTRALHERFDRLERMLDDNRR
Test: Phage-binding competition assay, KcsA-Kv1.3 T+F
Parameters: species or system human Kv1.3 turret and filter in Streptomyces lividans KcsA
Details: for rank order of affinities, competition, KcsA-Kv1.3 T+F: Fig. 6F; for Rank, T+F chimera (Kv1.3): rank by competition IC50 among Vm24, HgTx1, KTX1
Description: Phage stock solutions were diluted to working concentration with phage resuspension buffer supplemented with 2 mM DDM. For protein immobilization, the following amounts were used in a final volume of 50 μl/well: wt KcsA, 0.1 μg; KcsA-Kv1.1 T-only, 0.005 μg; KcsA-Kv1.1 T+F, 0.02 μg; KcsA-Kv1.2 T-only, 0.01 μg; KcsA-Kv1.2 T+F, 0.1 μg; KcsA-Kv1.3 T-only, 0.01 μg; and KcsA-Kv1.3 T+F, 0.1 μg. Protein samples were diluted in 50 μl of storage buffer (20 mM Tris pH8.0, 300 mM KCl, 2 mM DDM) and were added to the designated wells of a Pierce Clear, 96-Well Nickel Coated Plate (15442, Thermo Fisher Scientific), then incubated for 1 h at room temperature on a horizontal shaker at 130 rpm. The plate was blocked for 1 h at room temperature with 180 μl/well TBS-BSA supplemented with 1 mM DDM. Following blocking, the wells were washed 4× with washing buffer (300 μl TBS-Tween, 0.1% v/v) using a Wellwash Versa microplate washer (Thermo Fisher Scientific); then 50 μl phage solution (in TBS-BSA-Tween, 0.1% v/v, 2 mM DDM) at determined phage concentration was added to the wells and incubated for 1 h at room temperature on a horizontal shaker. The plate was washed 4× with washing buffer, then 50 μl anti-M13 IgG HRP (MA5-36125, Invitrogen) diluted to 1:2500 in TBS-Tween (0.1% v/v) was added to the wells and incubated for 1 h at room temperature. The plate was washed again 4× with 300 μl/well washing buffer. Finally, 50 μl/well 1-Step Ultra TMB-ELISA solution (34028, Thermo Fisher Scientific) was added to the wells, and the developing signal was stopped with 50 μl 1M HCl after 5 to 10 min. The light absorbance signal was read at 450 nm with Byonoy absorbance 96 plate reader (Byonoy GmbH).
For protein immobilization, the following amounts were used in a final volume of 50 μl/well: KcsA-Kv1.1 T-only, 0.005 μg; KcsA-Kv1.1 T+F, 0.01 μg; KcsA-Kv1.2 T-only, 0.025 μg; KcsA-Kv1.2 T+F, 0.0125 μg; KcsA-Kv1.3 T-only, 0.01 μg; and KcsA-Kv1.3 T+F, 0.1 μg. Protein samples were diluted in storage buffer. Binding of given concentrations of relevant ligand-displaying phages quantified by light absorbance ([…]) were investigated in a similar manner as in phage ELISA-binding assay, while different concentrations of competing toxin test substances were applied simultaneously. The results were converted to percent inhibitions (percent displacement) of the indicator phage binding, and relative affinities of the tested toxins were assessed by plotting percent displacements against log concentrations and determining half maximal inhibitory concentrations (IC50) by sigmoidal curve fitting using “Sigmoidal dose-response (variable slope) with least squares method” algorithm in GraphPad Prism 8 using the following equation: Y=Bottom+Top−Bottom/1+10^(LogEC50−×)⋅HillSlope

[1] = HgTx1-phage competition, T+F KcsA-Kv1.3, value given in figure, sigmoidal fit to means of three replicates, read-out: IC50 (Fig. 6F)

SMILES	IC50 [1] [pM]	rank order of affinities, competition, KcsA-Kv1.3 T+F (HgTx1-phage competition)	Rank, T+F chimera (Kv1.3)	IC50 (displacement of HgTx1-phage, KcsA-Kv1.3 T+F 0.1 μg/well on nickel-coated plate, phage ELISA absorbance, mean ± SD (n = 3), read-out: IC50, T+F chimera (Kv1.3)) [pM]
CC[C@H](C)[C@@H]1NC(=O)CNC(=O)[C@H](Cc2ccccc2)NC(=O)[C@H](CCC(N)=O)NC(=O)[C@H](C)NC(=O)[C@H](CCCCN)NC(=O)[C@@H]2CSSC[C@@H](C(=O)N[C@@H](Cc3ccc(O)cc3)C(=O)N3CCC[C@H]3C(=O)N[C@@H](Cc3c[nH]cn3)C(=O)O)NC(=O)[C@H](CCCCN)NC(=O)[C@@H]3CSSC[C@H](NC(=O)[C@H](CCC(N)=O)NC(=O)[C@H](CCCCN)NC(=O)[C@@H]4CCCN4C(=O)[C@H](CO)NC(=O)[C@H]([C@@H](C)O)NC(=O)[C@@H](NC(=O)[C@H](CCCCN)NC(=O)[C@@H](NC(=O)[C@H](CC(=O)O)NC(=O)[C@@H](NC(=O)[C@@H](NC(=O)[C@@H](N)[C@@H](C)O)C(C)C)[C@@H](C)CC)C(C)C)CSSC[C@H](NC(=O)[C@H](CCCCN)NC(=O)[C@H](C)NC(=O)CNC(=O)[C@H](C)NC(=O)[C@H](CCCNC(=N)N)NC1=O)C(=O)N[C@@H](CCSC)C(=O)N[C@@H](CC(N)=O)C(=O)NCC(=O)N[C@@H](CCCCN)C(=O)N3)C(=O)N[C@@H](CC(C)C)C(=O)N1CCC[C@H]1C(=O)N1CCC[C@H]1C(=O)N2 [HgTx1, Hongotoxin-1] (HELM PEPTIDE1{T.V.I.D.V.K.C.T.S.P.K.Q.C.L.P.P.C.K.A.Q.F.G.I.R.A.G.A.K.C.M.N.G.K.C.K.C.Y.P.H}$PEPTIDE1,PEPTIDE1,7:R3-29:R3|PEPTIDE1,PEPTIDE1,13:R3-34:R3|PEPTIDE1,PEPTIDE1,17:R3-36:R3$$$V2.0; N-terminus and C-terminus assumed)	108	Vm24 > HgTx1 > KTX1	2	
CC[C@H](C)[C@H](NC(=O)[C@H](CCC(=O)O)NC(=O)[C@@H](NC(=O)CN)C(C)C)C(=O)N[C@@H](CC(N)=O)C(=O)N[C@H](C(=O)N[C@@H](CCCCN)C(=O)N[C@H]1CSSC[C@@H]2NC(=O)[C@H](CCCCN)NC(=O)CNC(=O)[C@H](Cc3ccccc3)NC(=O)[C@H](CCCNC(=N)N)NC(=O)[C@H](CCSC)NC(=O)CNC(=O)[C@H](C)NC(=O)[C@H](CC(=O)O)NC(=O)[C@H](CCCCN)NC(=O)[C@@H]3CSSC[C@@H](C(=O)N[C@H](C(=O)N4CCC[C@H]4C(=O)N[C@@H](CCCCN)C(=O)O)[C@@H](C)O)NC(=O)[C@H](Cc4c[nH]cn4)NC(=O)[C@H](CSSC[C@H](NC(=O)[C@H](CCC(N)=O)NC(=O)[C@@H]4CCCN4C(=O)[C@H](CO)NC(=O)CNC(=O)[C@H](CO)NC1=O)C(=O)N[C@@H](CC(C)C)C(=O)N[C@@H](CCCCN)C(=O)N1CCC[C@H]1C(=O)N3)NC(=O)[C@H](CCCCN)NC(=O)[C@H](CCCNC(=N)N)NC(=O)[C@H](CC(N)=O)NC(=O)[C@H](CCSC)NC2=O)C(C)C [KTX1, Kaliotoxin-1]		Vm24 > HgTx1 > KTX1	3	98200
CC[C@H](C)[C@H](NC(=O)[C@H](C)NC(=O)[C@H](C)NC(=O)[C@H](C)N)C(=O)N[C@@H](CO)C(=O)N[C@H]1CSSC[C@@H]2NC(=O)[C@H](CCCCN)NC(=O)CNC(=O)[C@H](CC(N)=O)NC(=O)[C@H](CCCCN)NC(=O)[C@@H]3CSSC[C@@H](C(N)=O)NC(=O)[C@H](Cc4ccc(O)cc4)NC(=O)[C@H](Cc4ccc(O)cc4)NC(=O)[C@@H]4CSSC[C@H](NC(=O)[C@H](CCCCN)NC(=O)[C@@H]5CCCN5C(=O)[C@@H]5CCCN5C(=O)[C@H](CSSC[C@H](NC(=O)[C@H](CCCCN)NC(=O)[C@H](CCCNC(=N)N)NC(=O)[C@H](CC(N)=O)NC(=O)[C@H](CCSC)NC2=O)C(=O)N[C@@H](CCCCN)C(=O)N4)NC(=O)[C@H](CCC(=O)O)NC(=O)[C@@H]2CCCN2C(=O)[C@H](CO)NC(=O)CNC(=O)[C@H](C(C)C)NC1=O)C(=O)N[C@@H](CCCNC(=N)N)C(=O)N[C@@H](C)C(=O)N[C@@H](CCC(N)=O)C(=O)NCC(=O)N3 [Vm24, Vm24 toxin]	35.9	Vm24 > HgTx1 > KTX1	1	
